Tests used:
Format in all cases: cell-based
[1] = test system: Chlorella pyrenoidosa NIES 226; experiment: MIC against algae on Bold's Basal agar (Working Example 3); details: weight ratio 0:1 (second component alone); 14 days at 25° C. and 1500 lux
Protocol: By the following working examples, we describe in greater detail the antimicrobial effectiveness of the antimicrobial compositions of this invention. The term “MIC” as used in these working examples refers to the minimum inhibitory concentration (ppm) of the active ingredient in the antimicrobial compositions. […] The algae suspensions for inoculation used in working example 3 were prepared as follows. Bold's Basal liquid culture medium (50 ml) was inoculated with Chlorella pyrenoidosa NIES 226, it was shake-cultured for 14 days at 25° C., and algae suspensions for inoculation was thus prepared. […] Next, test culture media were prepared by adding each of the varying diluted aqueous solutions (0.1 ml) of these antimicrobial compositions to Bold's Basal agar culture medium (15 ml). Each of these test culture media was inoculated with the above algae suspensions for inoculation (1 ml), and after culturing for 14 days at 25° C. and 1500 lux. Then, the presence or absence of algae growth on each culture medium was observed visually. […] Table 5 lists the MIC, for algae, of the antimicrobial composition of each weight ratio.

[2] = test system: Penicillium funiculosum IFO 6345; experiment: MIC against fungi on potato dextrose agar (Working Example 2); details: weight ratio 0:1 (second component alone), 7 days at 28° C.; for MIC: Talaromyces funiculosus, IFO6345, 168 h, read-out: Minimum inhibitory concentration (ppm) against Penicillium funiculosum
Protocol: (§1) By the following working examples, we describe in greater detail the antimicrobial effectiveness of the antimicrobial compositions of this invention. The term “MIC” as used in these working examples refers to the minimum inhibitory concentration (ppm) of the active ingredient in the antimicrobial compositions. […] The spore suspensions for inoculation used in working example 2 were prepared as follows. Two fungi, Aspergillus niger IFO 6341 and Penicillium funiculosum IFO 6345, were cultured on two potato dextrose agar culture media not containing any biocides, and spores were formed. Next, said fungus spores were dispersed in disinfectant water to which 0.005% lubricant had been added, and two spore suspensions for inoculation were thus prepared. […] Next, test culture media were prepared by adding each of the varying diluted aqueous solutions (0.3 ml) of these antimicrobial compositions to a potato dextrose agar culture medium (15 ml). Each of these test culture media was inoculated with the above spore suspensions for inoculation (1 ml), and after culturing for 7 days at 28° C. Then, the presence or absence of fungus growth on each culture medium was observed visually.

[3] = test system: Aspergillus niger IFO 6341; experiment: as above; details: weight ratio 0:1 (second component alone), 7 days at 28° C.; for MIC: Aspergillus niger, IFO6341, 168 h, read-out: Minimum inhibitory concentration (ppm) against Aspergillus niger
Protocol: as §1

[4] = test system: Escherichia coli IFO 3972; experiment: MIC against bacteria in nutrient broth (Working Example 1); details: weight ratio 0:1 (second component alone), 24 hours at 30° C.
Protocol: (§2) By the following working examples, we describe in greater detail the antimicrobial effectiveness of the antimicrobial compositions of this invention. The term “MIC” as used in these working examples refers to the minimum inhibitory concentration (ppm) of the active ingredient in the antimicrobial compositions. […] The bacterial suspensions for inoculation used in working example 1 were prepared as follows. […] Next, test culture media were prepared by adding each of the varying diluted aqueous solutions (0.2 ml) of the antimicrobial compositions to a nutrient broth culture medium (10 ml). Each of these test culture media was inoculated with the above bacterial suspensions for inoculation (0.1 ml), and after culturing for 24 hours at 30° C. Then, the presence or absence of bacteria growth was assessed by visually observing the turbidity of the culture medium.

[5] = test system: Staphylococcus aureus IFO 12732; experiment: as above; details: weight ratio 0:1 (second component alone), 24 hours at 30° C.
Protocol: as §2

Structure (SMILES)	Minimum inhibitory concentration (ppm) against Chlorella pyrenoidosa [1] [ppm]	MIC [2] [µg/mL]	MIC [3] [µg/mL]	Minimum inhibitory concentration (ppm) against Escherichia coli [4] [ppm]	Minimum inhibitory concentration (ppm) against Staphylococcus aureus [5] [ppm]	Minimum inhibitory concentration (ppm) against Penicillium funiculosum [2] [ppm]	Minimum inhibitory concentration (ppm) against Aspergillus niger [3] [ppm]	MIC ([4]; Escherichia coli, IFO3972, read-out: Minimum inhibitory concentration (ppm) against Escherichia coli) [µg/mL]	MIC ([5]; Staphylococcus aureus, IFO12732, read-out: Minimum inhibitory concentration (ppm) against Staphylococcus aureus) [µg/mL]
CCCCCCCCn1sccc1=O [i, 2-(n-octyl)-3(2H)-isothiazolone]	20	0.2	0.4						
[Cu+2].[O-][n+]1ccccc1[S-].[O-][n+]1ccccc1[S-] [d, Copper 2-pyridine thiol-1-oxide]	100			200	10	1	400		
[O-][n+]1ccccc1[S-].[O-][n+]1ccccc1[S-].[Zn+2] [c, Zinc 2-pyridine thiol-1-oxide]	20			40	40	1	10		
Clc1ccc(OCOCC#CI)cc1 [b, 1-chloro-4-[[(3-iodo-2-propynyl)oxy]methoxy] benzene]	10	4	1					1000	20
[Na+].[O-][n+]1ccccc1[S-] [e, 2-pyridine thiol-1-oxide sodium salt]	40			200	10	2	400		
CSc1nc(NC2CC2)nc(NC(C)(C)C)n1 [g, 2-methylthio-4-t-butyl amino-6-cyclopropyl amino-s-triazine]	0.1								
[O-][n+]1ccccc1SSc1cccc[n+]1[O-] [f, 2,2-dithio-bis(pyridine-1-oxide)]	10			10	4	1	10		
CCCCNC(=O)OCC#CI [h, 3-iodo-2-propynyl butylcarbamate]	40	1	1						

Reference: patent US7416736B2, “Antimicrobial compositions” (Janssen Pharmaceutica N.V., priority 2001, dated 2008)
